{"source": "ChEMBL document CHEMBL1201862", "about": "“PubChem BioAssay data set” (2004)", "assay_in_all_cases": "growth of human tumour cells (NCI), 48 h", "key": {"[1]": {"tested_on": "HOP-92"}, "[2]": {"tested_on": "HCC 2998"}, "[3]": {"tested_on": "OVCAR-3"}, "[4]": {"tested_on": "UO-31"}, "[5]": {"tested_on": "SF-295"}, "[6]": {"tested_on": "HL-60"}, "[7]": {"tested_on": "SNB-75"}, "[8]": {"tested_on": "T47D"}, "[9]": {"tested_on": "EKVX"}, "[10]": {"tested_on": "SN12C"}, "[11]": {"tested_on": "MDA-N"}, "[12]": {"tested_on": "MOLT-4"}, "[13]": {"tested_on": "PC-3"}, "[14]": {"tested_on": "A498"}, "[15]": {"tested_on": "ACHN"}, "[16]": {"tested_on": "MDA-MB-231"}, "[17]": {"tested_on": "MDA-MB-435"}, "[18]": {"tested_on": "HOP-62"}, "[19]": {"tested_on": "OVCAR-5"}, "[20]": {"tested_on": "NCI-H522"}}, "note": "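Grown in 96-well plates, cells were treated for 48 hours with each compound at five concentrations. Insufficient inhibition: endpoint recorded as highest concentration tested. GI50 is the concentration that inhibits growth by half.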 Calls of active or inactive are those of the source. Cut-off read from the data, not from the text of the source: active = GI50 up to about 1.1 µM and inactive = higher."}
{"smiles": "COC(=O)C(Cc1c[nH]c2ccccc12)NC(=O)c1ccc(-c2ccc(Cl)cc2Cl)o1", "note": "(stereo not given)", "values": [{"measurement": "GI50", "setting": "[1]", "value": "17.5 µM (inactive)"}, {"measurement": "GI50", "setting": "[2]", "value": "18.4 µM (inactive)"}, {"measurement": "GI50", "setting": "[3]", "value": "36.4 µM (inactive)"}, {"measurement": "GI50", "setting": "[4]", "value": "45.4 µM (inactive)"}, {"measurement": "GI50", "setting": "[5]", "value": "40.5 µM (inactive)"}, {"measurement": "GI50", "setting": "[6]", "value": "10.5 µM (inactive)"}, {"measurement": "GI50", "setting": "[7]", "value": "35.5 µM (inactive)"}, {"measurement": "GI50", "setting": "[8]", "value": "27.5 µM (inactive)"}, {"measurement": "GI50", "setting": "[9]", "value": "27.4 µM (inactive)"}, {"measurement": "GI50", "setting": "[10]", "value": "26.4 µM (inactive)"}, {"measurement": "GI50", "setting": "[11]", "value": "48.2 µM (inactive)"}, {"measurement": "GI50", "setting": "[12]", "value": "17.6 µM (inactive)"}, {"measurement": "GI50", "setting": "[13]", "value": "7.96 µM (inactive)"}, {"measurement": "GI50", "setting": "[14]", "value": "15.5 µM (inactive)"}, {"measurement": "GI50", "setting": "[15]", "value": "38.4 µM (inactive)"}, {"measurement": "GI50", "setting": "[16]", "value": "15.5 µM (inactive)"}, {"measurement": "GI50", "setting": "[17]", "value": "56 µM (inactive)"}, {"measurement": "GI50", "setting": "[18]", "value": "45.8 µM (inactive)"}, {"measurement": "GI50", "setting": "[19]", "value": "> 100 µM (inactive)"}, {"measurement": "GI50", "setting": "[20]", "value": "64.3 µM (inactive)"}]}
{"smiles": "CCCN(CCCC(NC(C)=O)C(=O)NCc1ccccc1)C(=O)N(CCCl)N=O", "note": "(stereo not given)", "values": [{"measurement": "GI50", "setting": "[1]", "value": "17.1 µM (inactive)"}, {"measurement": "GI50", "setting": "[2]", "value": "4.4 µM (inactive)"}, {"measurement": "GI50", "setting": "[3]", "value": "20.9 µM (inactive)"}, {"measurement": "GI50", "setting": "[4]", "value": "25.5 µM (inactive)"}, {"measurement": "GI50", "setting": "[5]", "value": "2.66 µM (inactive)"}, {"measurement": "GI50", "setting": "[6]", "value": "3.97 µM (inactive)"}, {"measurement": "GI50", "setting": "[7]", "value": "5.58 µM (inactive)"}, {"measurement": "GI50", "setting": "[8]", "value": "> 100 µM (inactive)"}, {"measurement": "GI50", "setting": "[9]", "value": "31.7 µM (inactive)"}, {"measurement": "GI50", "setting": "[10]", "value": "15.8 µM (inactive)"}, {"measurement": "GI50", "setting": "[11]", "value": "> 100 µM (inactive)"}, {"measurement": "GI50", "setting": "[12]", "value": "2.6 µM (inactive)"}, {"measurement": "GI50", "setting": "[13]", "value": "> 100 µM (inactive)"}, {"measurement": "GI50", "setting": "[14]", "value": "13.3 µM (inactive)"}, {"measurement": "GI50", "setting": "[15]", "value": "3.09 µM (inactive)"}, {"measurement": "GI50", "setting": "[16]", "value": "> 100 µM (inactive)"}, {"measurement": "GI50", "setting": "[17]", "value": "> 100 µM (inactive)"}, {"measurement": "GI50", "setting": "[18]", "value": "2.73 µM (inactive)"}, {"measurement": "GI50", "setting": "[19]", "value": "34.4 µM (inactive)"}, {"measurement": "GI50", "setting": "[20]", "value": "20.7 µM (inactive)"}]}
{"smiles": "O=C1c2ccccc2-[n+]2ccc3c([nH]c4ccccc43)c21", "note": "[FASCAPLYSIN CHLORIDE]", "values": [{"measurement": "GI50", "setting": "[1]", "value": "1.66 µM (inactive)"}, {"measurement": "GI50", "setting": "[2]", "value": "0.19 µM (active)"}, {"measurement": "GI50", "setting": "[3]", "value": "0.145 µM (active)"}, {"measurement": "GI50", "setting": "[4]", "value": "0.682 µM (active)"}, {"measurement": "GI50", "setting": "[5]", "value": "0.232 µM (active)"}, {"measurement": "GI50", "setting": "[6]", "value": "0.404 µM (active)"}, {"measurement": "GI50", "setting": "[7]", "value": "0.452 µM (active)"}, {"measurement": "GI50", "setting": "[8]", "value": "0.755 µM (active)"}, {"measurement": "GI50", "setting": "[9]", "value": "0.274 µM (active)"}, {"measurement": "GI50", "setting": "[10]", "value": "0.231 µM (active)"}, {"measurement": "GI50", "setting": "[11]", "value": "0.191 µM (active)"}, {"measurement": "GI50", "setting": "[12]", "value": "0.285 µM (active)"}, {"measurement": "GI50", "setting": "[13]", "value": "0.269 µM (active)"}, {"measurement": "GI50", "setting": "[14]", "value": "1.58 µM (inactive)"}, {"measurement": "GI50", "setting": "[15]", "value": "0.557 µM (active)"}, {"measurement": "GI50", "setting": "[16]", "value": "0.22 µM (active)"}, {"measurement": "GI50", "setting": "[17]", "value": "0.179 µM (active)"}, {"measurement": "GI50", "setting": "[18]", "value": "1.14 µM (inactive)"}, {"measurement": "GI50", "setting": "[19]", "value": "0.48 µM (active)"}, {"measurement": "GI50", "setting": "[20]", "value": "0.49 µM (active)"}]}
{"smiles": "CCCOC(=O)c1cc(O)c(O)c(O)c1", "note": "[PROPYL GALLATE]", "values": [{"measurement": "GI50", "setting": "[1]", "value": "60.4 µM (inactive)"}, {"measurement": "GI50", "setting": "[2]", "value": "45.1 µM (inactive)"}, {"measurement": "GI50", "setting": "[3]", "value": "25.7 µM (inactive)"}, {"measurement": "GI50", "setting": "[4]", "value": "8.95 µM (inactive)"}, {"measurement": "GI50", "setting": "[5]", "value": "47.5 µM (inactive)"}, {"measurement": "GI50", "setting": "[6]", "value": "> 100 µM (inactive)"}, {"measurement": "GI50", "setting": "[7]", "value": "40.3 µM (inactive)"}, {"measurement": "GI50", "setting": "[8]", "value": "62.1 µM (inactive)"}, {"measurement": "GI50", "setting": "[9]", "value": "27.7 µM (inactive)"}, {"measurement": "GI50", "setting": "[10]", "value": "22.4 µM (inactive)"}, {"measurement": "GI50", "setting": "[11]", "value": "14.7 µM (inactive)"}, {"measurement": "GI50", "setting": "[12]", "value": "5.83 µM (inactive)"}, {"measurement": "GI50", "setting": "[13]", "value": "18.7 µM (inactive)"}, {"measurement": "GI50", "setting": "[14]", "value": "> 100 µM (inactive)"}, {"measurement": "GI50", "setting": "[15]", "value": "46.2 µM (inactive)"}, {"measurement": "GI50", "setting": "[16]", "value": "58.1 µM (inactive)"}, {"measurement": "GI50", "setting": "[17]", "value": "19.3 µM (inactive)"}, {"measurement": "GI50", "setting": "[18]", "value": "33.8 µM (inactive)"}, {"measurement": "GI50", "setting": "[19]", "value": "49.9 µM (inactive)"}, {"measurement": "GI50", "setting": "[20]", "value": "8.2 µM (inactive)"}]}
